In PMC6602303, “Yeast ceramide synthases, Lag1 and Lac1, have distinct substrate specificity” (Journal of Cell Science, 2019):

Assays:
[1] = target: T1, Lag1 (Saccharomyces cerevisiae, UniProt P38703); experiment: in vitro CerS assay, TLC fluorescence of NBD-ceramide; type: cell-free (lysate); conditions: labelled compound; 50 μM C26-CoA, 5 μM human ACBP1, 20 μM defatted BSA, 2 mM MgCl2, pH 7.2, 37°C; Δlac1Δsur2 lysate; read-out: apparent Km
T1 construct: native full-length protein in cryo-milled lysate of Δlac1Δsur2 yeast; with Ceramide synthase subunit LIP1
T1 sequence (P38703 1-411): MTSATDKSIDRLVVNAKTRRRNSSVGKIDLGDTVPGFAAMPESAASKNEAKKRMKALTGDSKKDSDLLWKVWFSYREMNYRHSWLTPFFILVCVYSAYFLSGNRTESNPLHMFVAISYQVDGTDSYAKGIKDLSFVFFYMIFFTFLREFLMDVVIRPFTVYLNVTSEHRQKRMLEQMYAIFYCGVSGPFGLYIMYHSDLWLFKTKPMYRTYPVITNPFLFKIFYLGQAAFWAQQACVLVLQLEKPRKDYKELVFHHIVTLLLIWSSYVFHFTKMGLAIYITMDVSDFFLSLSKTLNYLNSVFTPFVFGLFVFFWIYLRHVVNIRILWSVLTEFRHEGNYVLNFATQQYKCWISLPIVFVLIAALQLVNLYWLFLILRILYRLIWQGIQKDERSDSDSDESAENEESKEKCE
T1 sequence (Q03579 1-150 partner): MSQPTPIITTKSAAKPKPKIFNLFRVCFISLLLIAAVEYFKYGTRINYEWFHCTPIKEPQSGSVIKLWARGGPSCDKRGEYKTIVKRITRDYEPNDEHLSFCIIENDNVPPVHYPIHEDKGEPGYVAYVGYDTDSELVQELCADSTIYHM
From the text: in vitro CerS assay, TLC fluorescence of NBD-ceramide on Lag1 | Lag1 (Δlac1Δsur2) has a higher affinity towards PHS than Lac1 (Δlag1Δsur2) | We next determined the Km of Lag1 or Lac1 towards DHS and PHS

[2] = target: T2, Lac1 (Saccharomyces cerevisiae, UniProt P28496); experiment: as above; type: cell-free; conditions: labelled compound; 50 μM C26-CoA, 5 μM human ACBP1, 20 μM defatted BSA, 2 mM MgCl2, pH 7.2, 37°C; Δlag1Δsur2 lysate; read-out: apparent Km
T2 construct: native full-length protein in cryo-milled lysate of Δlag1Δsur2 yeast; with Ceramide synthase subunit LIP1
T2 sequence (P28496 2-418): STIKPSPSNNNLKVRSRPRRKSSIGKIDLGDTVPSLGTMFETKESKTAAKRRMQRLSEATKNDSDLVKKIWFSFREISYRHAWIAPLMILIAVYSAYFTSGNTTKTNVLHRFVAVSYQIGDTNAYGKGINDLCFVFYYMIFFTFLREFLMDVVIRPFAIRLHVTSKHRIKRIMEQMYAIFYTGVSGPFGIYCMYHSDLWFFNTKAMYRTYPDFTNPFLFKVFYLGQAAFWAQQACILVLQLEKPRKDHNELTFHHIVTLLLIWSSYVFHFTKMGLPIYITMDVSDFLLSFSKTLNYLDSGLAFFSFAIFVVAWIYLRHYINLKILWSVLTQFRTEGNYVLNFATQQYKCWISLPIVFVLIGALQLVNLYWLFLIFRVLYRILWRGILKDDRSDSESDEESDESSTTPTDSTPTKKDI
T2 sequence (Q03579 1-150 partner): T1 sequence (Q03579 1-150 partner)
From the text: in vitro CerS assay, TLC fluorescence of NBD-ceramide on Lac1 | Lag1 (Δlac1Δsur2) has a higher affinity towards PHS than Lac1 (Δlag1Δsur2) | We next determined the Km of Lag1 or Lac1 towards DHS and PHS

Substance | Km [1] | Km [2]
NBD–DHS | 132 ± 29 µM | 165 ± 56 µM
NBD–PHS | 30.5 ± 6.6 µM | 128 ± 52.5 µM
